Experimental data published in US7256203B2, “Dicationic 2,5-diarylfuran aza-analogs as anti-protozoan agents” (The University of North Carolina at Chapel Hill, priority 2002, dated 2007).
Structures can show the parent of a compound that is named as a salt. Where two headings read alike, the source gives them in different places.

Assays:
[1] = system: Trypanosoma brucei rhodesiense; experiment: In vitro anti-protozoan data, T. b. r.; type: cell-based
Plasmodium falciparum = experiment: In vitro anti-protozoan data, P. f.; type: cell-based
Leishmania donovani = experiment: In vitro anti-protozoan data, L. d.; type: cell-based
[2] = system: STIB900 strain of T. b. r.; experiment: Mouse model of virulent STIB900 strain of T. b. r.; type: in vivo
T. b. r. = experiment: CNS model in mice (2nd stage human African trypanosomiasis); type: in vivo; details: through day 120 of an experiment slated for 180 days
[3] = Trypanosoma brucei, RHODESIENSE, in vitro, read-out: T. b. r. IC50
[4] = Plasmodium falciparum, in vitro, read-out: IC-50 values versus Plasmodium falciparum (p.f.)
[5] = Plasmodium falciparum, in vitro, read-out: P. f. IC50
[6] = in vitro, read-out: T. b. r. IC50

SMILES | IC50 [1, 3] | IC50 (Plasmodium falciparum; [5]) | IC50 (Leishmania donovani; Leishmania donovani) | melting point | also measured
N=C(NO)c1ccc(-c2ccc(-c3ccc(C(=N)NO)cn3)o2)cc1 [Compound 4, N-Hydroxy-6-{5-[4-(N-hydroxycarbamimidoyl)-phenyl]-furan-2-yl}-nicotinamidine] | 120 µM | 0.0043 µM | > 195 µM |  | IC50 (Plasmodium falciparum; [4]): < 0.01 µM
CONC(=N)c1ccc(-c2ccc(-c3ccc(C(=N)NOC)cn3)o2)cc1 [Compound 5, N-Methoxy-6-{5-[4-(N-methoxy-carbamimidoyl)-phenyl]-furan-2-yl}-nicotinamidine] | 37.1 µM | 0.0049 µM | 113 µM |  | IC50 (Plasmodium falciparum; [4]): < 0.01 µM; cure of virulent STIB900 strain of T. b. r. in a mouse model [2]: cure; parasite free mice in the CNS model (T. b. r.): parasite free mice
N=C(N)c1ccc(-c2ccc(-c3ccc(C(=N)N)cn3)o2)cc1 [Compound 7, 6-[5-(4-Carbamimidoyl-phenyl)-furan-2-yl]-nicotinamidine] | 0.007 µM |  | 101 µM |  | IC50 ([1]; Trypanosoma brucei, RHODESIENSE, read-out: IC-50 values versus Trypanosoma brucei rhodesiense (T.b.r.)): < 0.01 µM; IC50 (Plasmodium falciparum; Plasmodium falciparum, read-out: IC-50 values versus Plasmodium falciparum (p.f.)): < 0.01 µM; IC50 (Plasmodium falciparum; Plasmodium falciparum, read-out: P. f. IC50): 0.0065 µM; cure of virulent STIB900 strain of T. b. r. in a mouse model [2]: cure
N=C(NO)c1ccc(-c2ccc(-c3ccc(C(=N)NO)cn3)s2)cc1 [Compound 11, N-Hydroxy-6-{5-[4-(N-hydroxycarbamimidoyl)-phenyl]-thiophen-2-yl}-nicotinamidine] | > 187 µM | > 10.4 µM | > 187 µM | 293 to 295 °C (dec.) | 
CONC(=N)c1ccc(-c2ccc(-c3ccc(C(=N)NOC)cn3)s2)cc1 [Compound 12, N-Methoxy-6-{5-[4-(N-methoxy-carbamimidoyl)-phenyl]-thiophn-2-yl}-nicotinamidine] |  |  |  |  | IC50 [1, 6]: 9.43 µM; IC50 (Plasmodium falciparum; in vitro, read-out: P. f. IC50): 0.133 µM
N=C(NO)c1ccc(-c2ccc(-c3ccc(C(=N)NO)nc3)o2)cc1 [Compound 17, N-Hydroxy-5-{5-[4-(N-hydroxycarbamimidoyl)-phenyl]-furan-2-yl}-pyridine-2-carboxamidine] | 200 µM | > 11.7 µM |  | 276 to 279 °C | 
CONC(=N)c1ccc(-c2ccc(-c3ccc(C(=N)NOC)nc3)o2)cc1 [Compound 18, N-Methoxy-5-{5-[4-(N-methoxycarbamimidoyl)-phenyl]-furan-2-yl}-pyridin-2-carboxamidine] | 6.5 µM | 8.5 µM |  | 142 to 143 °C | 
CC(=O)ONC(=N)c1ccc(-c2ccc(-c3ccc(C(=N)NOC(C)=O)nc3)o2)cc1 [Compound 19, N -Acetoxy-5-{5-[4-(N-Acetoxycarbamimidoyl)-phenyl]-furan-2-yl}-pyridine-2-carboxamidine] |  |  |  | 267 to 270 °C | 
N=C(N)c1ccc(-c2ccc(-c3ccc(C(=N)N)nc3)o2)cc1 [Compound 20, 5-[5-(4-Carbamimidoyl-phenyl)-furan-2-yl]-pyridine-2-carboxamidine actate salt] |  |  |  |  | IC50 [1, 6]: 0.0031 µM; IC50 (Plasmodium falciparum; in vitro, read-out: P. f. IC50): 0.0183 µM; IC50 (Leishmania donovani): 47 µM
N=C(NO)c1ccc(-c2ccc(-c3ccc(C(=N)NO)cn3)o2)nc1 [Compound 22, 2,5-Bis[5-(N-hydroxycarbamimidoyl)-2-pyridyl)furan] | 55.8 µM | > 0.0102 µM | 77 µM | 272 to 274 °C (dec.) | 
CC(=O)ONC(=N)c1ccc(-c2ccc(-c3ccc(C(=N)NOC(C)=O)cn3)o2)nc1 [Compound 23, 2,5-Bis[5-(N-acetoxycarbamimidoyl)-2-pyridyl)furan] |  |  |  | 299 to 300 °C | 
N=C(N)c1ccc(-c2ccc(-c3ccc(C(=N)N)cn3)o2)nc1 [Compound 24, 2,5-Bis[5-amidine-2-pyridyl)furan] |  |  |  |  | IC50 [1, 6]: 0.021 µM; IC50 (Plasmodium falciparum; in vitro, read-out: P. f. IC50): 0.083 µM; IC50 (Leishmania donovani): 193 µM
CONC(=N)c1ccc(-c2ccc(-c3ccc(C(=N)NOC)cn3)o2)nc1 [Compound 27, 2,5-Bis[5-(N-methoxycarbamimidoyl)-2-pyridyl)furan] | 11.1 µM | 0.00177 µM | > 166 µM |  | IC50 (Plasmodium falciparum; [4]): < 0.01 µM
Cc1cc(C(=N)NO)ccc1-c1ccc(-c2ccc(C(=N)NO)cn2)o1 [Compound 29, N-Hydroxy-6-{5-[4-(N-hydroxycarbamimidoyl)-2-methyl-phenyl]-furan-2-yl}-nicotinamidine] |  |  |  | 196 to 198 °C | 
CC(=O)ONC(=N)c1ccc(-c2ccc(-c3ccc(C(=N)NOC(C)=O)cc3C)o2)nc1 [Compound 30, N-Acetoxy-6-{5-[4-(N-acetoxycarbamimidoyl)-2-methyl-phenyl]-furan-2-yl}-nicotinamidine] |  |  |  | 203 to 205 °C | 
N=C(NO)c1ccc(-c2ccc(C=Cc3ccccc3)o2)nc1 [Compound 33, N-Hydroxy-6-(5-styryl-furan-2-yl)-nicotinamidine] |  |  |  | 230 to 231 °C | 
N=C(NO)c1ccc(Cc2ccc(-c3ccc(C(=N)NO)cn3)o2)cc1 [Compound 36, N-Hydroxy-6-{5-[4-(N-hydroxycarbamimidoyl)benzyl]-furan-2-yl}-nicotinamidine] |  |  |  | 214 to 216 °C | 
CC(=O)ONC(=N)c1ccc(Cc2ccc(-c3ccc(C(=N)NOC(C)=O)cn3)o2)cc1 [Compound 37, N-Acetoxy-6-{5-[4-(N-acetoxycarbamimidoyl)benzyl]-furan-2-yl}-nicotinamidine] |  |  |  | 194 to 196 °C | 
